What is called inhibition is the percentage by which the read-out fell short of the control.

Series [1] is described as follows: Pharmacokinetics of a single oral dose of Toltrazuril in horses (blood levels). It is filed as in vivo. The conditions noted are these: horses receiving single oral 10 mg/kg Toltrazuril. On the procedure:
A pharmacokinetic study was conducted in horses comparing blood levels of Toltrazuril, Ponazuril and Toltrazuril Sulfoxide at various times post a single dose of Toltrazuril. All horses received a single dose of 10 mg/kg, which was administered orally as a suspension. Blood samples were drawn at the time of treatment (0) and at 0.25, 0.5, 1, 2, 4, 6, 12, 24, 48 and 72 hours post treatment. […] This was an indication that Ponazuril, alone, would produce acceptable blood levels that are envisioned to pass the blood-brain barrier, a characteristic required to treat neurological diseases such as those caused by Sarcocystis neurona, Toxoplasma gondii, Neospora caninum and Neospora heugesi.

In a further series the test system is EPM-Infected Horses. Description: Response of EPM-infected horses to treatment (clinical score). It is filed as in vivo. On the procedure: The compound was formulated into a paste using Ponazuril as a 15% active ingredient (a.i.) as described in EXAMPLE 1. It was administered to horses already diagnosed with EPM once a day for 28 days at a dose rate between 2.5 mg/Kg and 10 mg/Kg.
Naturally occurring clinical cases of EPM were well characterized by signalment and laboratory diagnosis. The diagnosis used for incorporation of EPM-positive horses into this trial was as follows: Confirmed asymmetrical neurological deficit as determined by a standardized neurological examination, to include radiography, indicative of EPM; Positive Western Blot for Sarcocystis neurona IgG; Red Blood Cell count below 500 cells/mL; CSF indices--Total Protein <90, IgG index >0.3. AQ quotient <2.2.
Additional requirements were that the horses were not suffering from diseases other than EPM. Therefore, they had to meet the following criteria: Negative CSF (<1:4) for EHV-1; Normal serum values for Vitamin E (.2.0 μg/mL); Lack of seizure disorders; Lack of behavior disorders.
Diagnosed horses were randomly assigned to groups. Group 1 horses received the paste formulation daily at a dose rate of 5mg/Kg whereas Group 2 horses received the paste formulation daily at a dose rate of 10 mg/Kg. The treatment dose was based on body weight. The horses were evaluated for a period of 90 days (approximately 60 days after discontinuation of treatment) in order to determine that treatment was indeed effective. The response to treatment was scored using the following system: 1) 0=complete success-clinically normal with a negative CSF; 2) 1=Deficit just detected at a normal gait; 3) 2=Deficit easily detected and exaggerated by backing, turning, swaying, jaw loin pressure and neck extension; 4) 3=Deficit very prominent on walking, Facial turning, loin pressure or neck extension; 5) 4=Stumbling, tripping and falling down spontaneously; 6) 5=Recumbent, unable to rise. An improvement of one (1) unit in the score was considered a significant improvement.

For another series, the system named is Sarcocystis neurona. Description: Microtiter Monolayer Disruption Assay (MMDA), inhibition of BT cell destruction by S. neurona. It is filed as cell-based. As to conditions: 10 μg/mL, read-out: Percent Inhibition of Cell Destruction. On the procedure: (§1) In order to determine the scope of protection provided by Ponazuril, in vitro testing was conducted. The following strains of parasites were evaluated for their sensitivity to this compound: Strain SN3 of Sarcocystis neurona; strain SF1 of Sarcocystis falcatula; strain RH of Toxoplasma gondii; and the NC-1 strain of Neospora caninum. Ponazuril was tested at concentrations (1 μg/mL and 10 μg/mL).
(§2) Bovine turbinate (BT) cells were used for all in vitro studies. Cells were grown to confluency in 25 cm^2 flasks in RMPI 1640 media supplemented with 10% v/v fetal bovine serum (FBS), 100 Units penicillin (G/mL), […] and 5×10^-2 mM 2-mercpatoethanol. After cell confluence was obtained, cells were maintained in the same media with reduced FBS (2% v/v). Cell cultures were incubated at 37° C. in a humidified atmosphere containing 5% carbon dioxide and 95% air. […]
(§3) The assay used to determine the effectiveness of Ponazuril was the Microtiter Monolayer Disruption Assay (MMDA). […] Flat bottomed 96-well microtiter plates were inoculated with BT cells and the resulting monolayers were used to determine the effects of Toltrazuril and Ponazuril on merozoite production as measured by CPE (plaque formation). […]

The next series relates to Sarcocystis falcatula. Kind of series: Microtiter Monolayer Disruption Assay (MMDA), inhibition of BT cell destruction by S. falcatula. It is filed as cell-based. As to conditions: 1 μg/mL, read-out: Percent Inhibition of Cell Destruction. On the procedure:
as §1, §2, §3

The next series has as its system Neospora caninum NC-1. Description: Microtiter Monolayer Disruption Assay (MMDA), inhibition of BT cell destruction by N. caninum. It is filed as cell-based. As to conditions: 1.0 μg/mL, read-out: Percent Inhibition of Cell Destruction. On the procedure:
as §1, §2, §3

Another series relates to Toxoplasma gondii. Description: Microtiter Monolayer Disruption Assay (MMDA), inhibition of BT cell destruction by T. gondii. The conditions noted are these: 1.0 μg/mL, read-out: Percent Inhibition of Cell Destruction. It is filed as cell-based. On the procedure:
as §1, §2, §3

In series [2] the test system is Bovine turbinate (BT) cells. It is filed as cell-based. The conditions noted are these: uninfected agent treated BT cells. On the procedure: Bovine turbinate (BT) cells were used for all in vitro studies. Cells were grown to confluency in 25 cm^2 flasks in RMPI 1640 media supplemented with 10% v/v fetal bovine serum (FBS), 100 Units penicillin (G/mL), […] and 5×10^-2 mM 2-mercpatoethanol. After cell confluence was obtained, cells were maintained in the same media with reduced FBS (2% v/v). Cell cultures were incubated at 37° C. in a humidified atmosphere containing 5% carbon dioxide and 95% air.
The assay used to determine the effectiveness of Ponazuril was the Microtiter Monolayer Disruption Assay (MMDA). This assay was used to determine if the parasites or compound were toxic for BT cells. Flat bottomed 96-well microtiter plates were inoculated with BT cells and the resulting monolayers were used to determine the effects of Toltrazuril and Ponazuril on merozoite production as measured by CPE (plaque formation). […]

Series [3] is described as follows: Cerebral spinal fluid drug levels / passage of blood-brain barrier after repeated doses of Toltrazuril in horses. It is filed as in vivo. As to conditions: horses. On the procedure: This experiment was conducted in order to determine whether triazineones such as Toltrazuril can pass the blood-brain barrier. Normal horses were divided into three groups of three horses per group. Group 1 horses received Toltrazuril administered orally as a 5% suspension at a dose level of 2.5 mg/Kg. Group 2 horses received Toltrazuril administered orally as a 5% suspension at a dose level of 5.0 mg/Kg. Group 3 horses received Toltrazuril administered orally as a 5% suspension at a dose level of 7.5 mg/Kg. The dosing was repeated daily for 10 days. Blood samples were drawn at 48, 96 and 240 hours and the concentration of Toltrazuril, Toltrazuril sulfoxide and Ponazuril in the serum was measured. Ten days after the start of the treatment (Day 10), a sample of cerebral spinal fluid was removed from each horse and the concentrations of Toltrazuril, Toltrazuril Sulfoxide and Ponazuril were again measured in these samples. The concentrations of Toltrazuril, Toltrazuril Sulfoxide and Ponazuril in the serum and cerebral spinal fluid are reported in TABLES 5a and 5b.

Series [4] can be described thus: Safety and effectiveness of a single high dose. It is filed as in vivo. As to conditions: doses as high as 100 mg/Kg body weight. On the procedure: For the single high dose treatment the triazineone is administered in pharmaceutically effective amounts that are greater than 10 mg/Kg and up to about 100 mg/Kg. It is a distinct feature of the invention the compounds of this invention can be non-toxic, thus they can be administrated at high dose levels. The advantage of the high dose administration resides in the fact repeated doses are not required.

The mark [5] stands for this setting: after treatment with Toltrazuril.

Regarding `Cc1cc(-n2c(=O)[nH]c(=O)n(C)c2=O)ccc1Oc1ccc(S(=O)(=O)C(F)(F)F)cc1` [Ponazuril], the “Levels in serum / bloodstream (in words)” value in series [1] is “relatively high levels”. In addition, the “Horses demonstrating acceptable improvement” value with EPM-Infected Horses (5 mg/Kg dose, eight of nine horses) amounted to 88.9%. In addition, the TOTAL clinical score with EPM-Infected Horses (5 mg/Kg group, Day 0 (baseline)) turned out to be 17; in the series on EPM-Infected Horses (5 mg/Kg group, Day 28), 13; with EPM-Infected Horses (5 mg/Kg group, Day 90), 6; in the series on EPM-Infected Horses (10 mg/Kg group, Day 0 (baseline)), 19; in the series with EPM-Infected Horses (10 mg/Kg group, Day 28), 15; with EPM-Infected Horses (10 mg/Kg group, Day 90) it was 4. For the same molecule, in the series on EPM-Infected Horses (10 mg/Kg group, 28 days, by day 90 post start of treatment), the “Horses showing significant improvement in clinical score” value is reported as 100%. The “Improvement in total scores, Group 1 (5 mg/Kg) versus Group 2 (10 mg/Kg)” value with EPM-Infected Horses (EPM horses, 5 vs 10 mg/Kg) is reported as “approximately equivalent”. For the same molecule, the “Effectiveness for active treatment of EPM” value in the series with EPM-Infected Horses (at either 5 mg/Kg or 10 mg/Kg, horses) is reported as “effective for the active treatment of EPM in horses”. Further, the inhibition at 10 µg/mL in the series on Sarcocystis neurona amounted to 100%. The inhibition at 1 µg/mL with Sarcocystis falcatula, in the series on Neospora caninum NC-1 and in the series on Toxoplasma gondii was 100% throughout. Moreover, in series [2], the “Toxicity to BT cells” value was “not toxic to the BT cells”. For the same molecule, the “Crossing of the blood-brain barrier” value in series [3] (after oral Toltrazuril daily for 10 days) is “effectively cross the blood-brain barrier”. The “Concentration in cerebral spinal fluid relative to that of Toltrazuril” value in series [3] (setting [5]) is listed as “essentially equivalent to the concentration of Toltrazuril itself”. Moreover, in [3] (setting [5]), the “Crossing of the blood-brain barrier compared with Toltrazuril” value is “crosses this barrier more effectively than does Toltrazuril”. Besides, the Safety and effectiveness entry in series [4] was “both safe and effective”.

The values are drawn from US6194408A, “Triazineone compounds for treating diseases due to Sarcocystis, Neospora and Toxoplasma” (Bayer Corporation, priority 1998, dated 2001).
